Data taken from patent US20250282812A1, “ANTIVIRAL NUCLEOSIDE ANALOGUE, AND PHARMACEUTICAL COMPOSITION AND USE THEREOF” (SHANGHAI INSTITUTE OF MATERIA MEDICA , CHINESE ACADEMY OF …, priority 2022, published 2025).
Values after ≈ are worked out from the molar mass of the structure shown.

Key:
[1] = tested on: influenza virus (IFV) A/California/07/2009 (H1N1) pdm09 strain; experiment: In vitro activity against influenza virus (CPE, CCK8, MDCK cells); format: cell-based; conditions: 120 h, read-out: IFV (MDCK) EC50
[2] = tested on: respiratory syncytial virus (RSV) A long strain; experiment: In vitro activity against respiratory syncytial virus (CPE, CCK8, HEp-2 cells); format: cell-based; conditions: human respiratory syncytial virus, 120 h, MOI=0.02, 5 days
[3] = tested on: SFTSV-Nluc; experiment: microbe, parasite or virus in culture; format: cell-based, severe fever with thrombocytopenia syndrome virus (SFTSV); conditions: Severe fever with thrombocytopenia syndrome virus, Vero, 48 h; for inhibition at 10 µM: read-out: Inhibition rate (10 μM)
[4] = in vitro; conditions: dog
[5] = Cytotoxicity in HEp-2 cells (CCK8); conditions: human
[6] = Stability test of compounds in solutions at different pH values
[7] = Solubility of compounds in water; conditions: thermodynamic from solid
[8] = tested on: influenza virus Influenza A/PR/8/34 (PR8); experiment: In vivo efficacy for influenza virus in mice; parameters: species or system Balb/C mice; conditions: for body weight after 4 days of infection compared with the initial body weight: intragastric once daily Day 0-3, X219 hydrochloride 10, 20 and 30 mpk, favipiravir 200 mpk
[9] = tested on: respiratory syncytial virus (RSV A2); experiment: In vivo efficacy for respiratory syncytial virus (RSV) in mice
[10] = tested on: SFTSV-Nluc; parameters: species or system A129 mice; conditions: mouse
[11] = buffered saline solution pH 4.0, 3 h
[12] = buffered saline solution pH 4.0, 6 h
[13] = buffered saline solution pH 4.0, 9 h
[14] = buffered saline solution pH 4.0, 12 h
[15] = buffered saline solution pH 4.0, 15 h
[16] = buffered saline solution pH 4.0, 18 h
[17] = buffered saline solution pH 4.0, 21 h
[18] = buffered saline solution pH 4.0, 24 h
[19] = buffered saline solution pH 6.8, 3 h
[20] = buffered saline solution pH 6.8, 6 h
[21] = buffered saline solution pH 6.8, 9 h
[22] = buffered saline solution pH 6.8, 12 h
[23] = buffered saline solution pH 6.8, 15 h
[24] = buffered saline solution pH 6.8, 18 h
[25] = buffered saline solution pH 6.8, 21 h
[26] = buffered saline solution pH 6.8, 24 h

Row | SMILES | EC50 [1] | EC50 [2] | EC50 [3] | inhibition at 10 µM [3] | CC50 [4] | CC50 at 5 days [5] | Content reduction (%) [6, 11] | Content reduction (%) [6, 12] | Content reduction (%) [6, 13] | Content reduction (%) [6, 14] | Content reduction (%) [6, 15] | Content reduction (%) [6, 16] | Content reduction (%) [6, 17] | Content reduction (%) [6, 18] | Content reduction (%) [6, 19] | Content reduction (%) [6, 20] | Content reduction (%) [6, 21] | Content reduction (%) [6, 22] | Content reduction (%) [6, 23] | solubility at 15 min [7] | further results
1 | CC(C)C(=O)OCn1c(=O)ccn([C@@H]2O[C@](F)(COC(=O)C(C)C)[C@@H](O)[C@H]2O)c1=O [Compound X51] | < 370 nM | 2150 nM | 430 nM | 94.1% | > 10000 nM | > 10000 nM | 1.6% | 2.5% | 3.1% | 3.4% | 3.9% | 4.6% | 5.2% | 5.6% | 1.1% | 2.0% | 3.0% | 3.8% | 4.7% |  | Content reduction (%) [6, 24]: 5.6%; Content reduction (%) [6, 25]: 6.5%; Content reduction (%) [6, 26]: 7.4%
2 | CC(C)C(=O)OC[C@@]1(F)O[C@@H](n2ccc(=O)n(COC(=O)C3CCCCC3)c2=O)[C@H](O)[C@@H]1O [Compound X55] | < 370 nM | 1630 nM | 1040 nM | 93.6% | > 10000 nM | > 10000 nM | 2.4% | 4.9% | 6.9% | 9.0% | 10.8% | 12.7% | 14.2% | 15.4% | 1.0% | 2.3% | 3.3% | 4.4% | 5.4% |  | Content reduction (%) [6, 24]: 6.4%; Content reduction (%) [6, 25]: 7.7%
3 | CC(C)C(=O)OC[C@@]1(F)O[C@@H](n2ccc(=O)n(COC(=O)c3cccnc3)c2=O)[C@H](OC(=O)C(C)C)[C@@H]1OC(=O)C(C)C [Compound X206] | 380 nM | 2430 nM | 1730 nM | 93.7% | > 10000 nM | > 10000 nM | 0.01% | 0.03% | 0.02% | 0.03% | 0.03% | 0.01% | 0.03% | 0.0% | 1.93% | 3.09% | 3.84% | 4.06% | 5.72% |  | Content reduction (%) [6, 24]: 6.34%; Content reduction (%) [6, 25]: 7.28%; Content reduction (%) [6, 26]: 8.16%
4 | CC(=O)OC[C@@]1(F)O[C@@H](n2ccc(=O)[nH]c2=O)[C@H](OC(C)=O)[C@@H]1OC(C)=O [Compound X219-1] |  |  |  |  |  |  |  |  |  |  |  |  |  |  |  |  |  |  |  | 150 µg/mL (≈ 386 µM) | 
5 | CC(=O)OC[C@@]1(F)O[C@@H](n2ccc(=O)n(COC(=O)c3cccnc3)c2=O)[C@H](OC(C)=O)[C@@H]1OC(C)=O [Compound X219] | 3920 nM | 2600 nM | 3390 nM | 91.7% | > 10000 nM | > 10000 nM | 0.22% | 0.34% | 0.44% | 0.62% | 0.70% | 0.78% | 0.93% | 1.02% | 1.06% | 1.86% | 2.92% | 3.96% | 5.27% | 700 µg/mL (≈ 1340 µM) | Content reduction (%) [6, 24]: 6.01%; Content reduction (%) [6, 25]: 7.02%; Content reduction (%) [6, 26]: 8.38%
6 | CC(=O)O[C@H]1[C@H](n2ccc(=O)[nH]c2=O)O[C@](F)(COC(=O)C(C)C)[C@H]1OC(C)=O [Compound X265-3] |  |  |  |  |  |  |  |  |  |  |  |  |  |  |  |  |  |  |  | 100 µg/mL (≈ 240 µM) | 
7 | CC(C)C(=O)OC[C@@]1(F)O[C@@H](n2ccc(=O)n(COC(=O)[C@@H]3CCCN3C)c2=O)[C@H](OC(=O)C(C)C)[C@@H]1OC(=O)C(C)C [Compound X267] | 500 nM | 880 nM | 2000 nM | 94.1% | > 10000 nM | > 10000 nM |  |  |  |  |  |  |  |  |  |  |  |  |  |  | 
8 | Br.CC(=O)OC[C@@]1(F)O[C@@H](n2ccc(=O)n(COC(=O)c3cccnc3)c2=O)[C@H](OC(C)=O)[C@@H]1OC(C)=O [X219 hydrobromide] |  |  |  |  |  |  |  |  |  |  |  |  |  |  |  |  |  |  |  | 17600 µg/mL | 
9 | CC(=O)OC[C@@]1(F)O[C@@H](n2ccc(=O)n(COC(=O)c3cccnc3)c2=O)[C@H](OC(C)=O)[C@@H]1OC(C)=O.Cl [X219 hydrochloride] |  |  |  |  |  |  | 0.24% | 0.28% | 0.34% | 0.55% | 0.64% | 0.72% | 0.73% | 0.87% | 0.98% | 2.03% | 3.09% | 4.10% | 5.13% | 4740 µg/mL | pulmonary viral load compared with the PR8+vehicle group ([8]; […], X219 hydrochloride 10, 20, 30 mpk intragastric once daily, Day 4): significantly reduced; body weight after 4 days of infection compared with the initial body weight ([8]; […]): did not change significantly; reduction of pulmonary viral load compared with the PR8+vehicle group ([8]; dose 20 mg/kg intragastric once daily, Day 4): greater than 4 log10; reduction of pulmonary viral load compared with the PR8+vehicle group ([8]; dose 30 mg/kg intragastric once daily, Day 4): greater than 4 log10; levels of inflammatory factors (IL-6, IL-8, IL-1B, TNF-α, ISG-15, and TNF-1B) in the lungs compared with the PR8+vehicle group ([8]; lung tissue, Day 4): significantly lower; inhibitory effect on virus compared with the positive drug favipiravir (200 mpk) ([8]; pulmonary viral load, Day 4): significantly better; reduction in the pulmonary viral load compared with the vehicle group ([9]; 20 mpk intragastric once daily, Day 4): about 0.7 log10; change in the body weight ([9]; RSV A2-infected BALB/C mice, X219 hydrochloride 20 mpk or X28-1 10 mpk intragastric once daily): began to show an increase in the body weight on Day 3; Content reduction (%) [6, 24]: 6.13%; Content reduction (%) [6, 25]: 7.07%; Content reduction (%) [6, 26]: 8.02%
10 | Br.CC(=O)O[C@H]1[C@H](n2ccc(=O)n(COC(=O)c3cccnc3)c2=O)O[C@](F)(COC(=O)C(C)C)[C@H]1OC(C)=O [X265 hydrobromide] |  |  |  |  |  |  |  |  |  |  |  |  |  |  |  |  |  |  |  | 8050 µg/mL | 
11 | CC(=O)O[C@H]1[C@H](n2ccc(=O)n(COC(=O)c3cccnc3)c2=O)O[C@](F)(COC(=O)C(C)C)[C@H]1OC(C)=O.Cl [X265 hydrochloride] |  |  |  |  |  |  |  |  |  |  |  |  |  |  |  |  |  |  |  | 19500 µg/mL | 
12 | NC(=O)c1nc(F)c[nH]c1=O [favipiravir, reference compound] |  |  |  |  |  |  |  |  |  |  |  |  |  |  |  |  |  |  |  |  | body weight after 4 days of infection compared with the initial body weight ([8]; […]): did not change significantly; in vivo fluorescence imaging, fluorescence intensity on ventral and dorsal side [10]: weak fluorescence intensity
